Reference: PMC7714403 (JCI Insight, 2020)

Experiments:
PIK3CB = PIK3CB (Homo sapiens, UniProt P42338); assay: KiNativ, OCI cells live cell; format: cell-based; details: 2 h, labeling site ATP, peptide […]
STLK5 = target: T1, STLK5 (Homo sapiens, UniProt Q7RTN6); assay: KiNativ, OCI cells live cell; format: cell-based; details: 2 h, labeling site Lys2, peptide […]
T1 sequence (Q7RTN6 1-431): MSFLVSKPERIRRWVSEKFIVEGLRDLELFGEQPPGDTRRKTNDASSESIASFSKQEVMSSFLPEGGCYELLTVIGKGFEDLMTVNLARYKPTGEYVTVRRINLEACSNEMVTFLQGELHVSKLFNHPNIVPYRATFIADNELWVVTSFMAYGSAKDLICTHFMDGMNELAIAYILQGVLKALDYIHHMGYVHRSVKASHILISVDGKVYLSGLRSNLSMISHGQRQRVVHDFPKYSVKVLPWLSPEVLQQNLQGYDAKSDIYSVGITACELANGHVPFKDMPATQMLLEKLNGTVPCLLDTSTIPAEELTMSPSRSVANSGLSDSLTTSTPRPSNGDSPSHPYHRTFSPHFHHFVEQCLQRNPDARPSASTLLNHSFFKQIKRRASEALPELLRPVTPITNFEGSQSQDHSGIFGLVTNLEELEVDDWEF

[1] = test system: MSK1 domain1, MSK2 domain1; assay: KiNativ, MOLM13 live cells; format: cell-based, human; details: 100 nM, 2 hours; ATP Loop
Method: (§1) Samples were analyzed by KiNativ in situ kinase profiling by ActivX Biosciences.

PI4KA, PI4KAP2 = assay: KiNativ, MOLM13 live cells; format: cell-based, human; details: 100 nM, 2 hours; ATP
Method: as §1

AKT2, AKT3 = assay: KiNativ, MOLM13 live cells; format: cell-based, human; details: 100 nM, 2 hours; ATP Loop
Method: as §1

p38d, p38g = assay: KiNativ, MOLM13 live cells; format: cell-based, human; details: 100 nM, 2 hours; Lys2
Method: as §1

AMPKa1, AMPKa2 = assay: KiNativ, MOLM13 live cells; format: cell-based, human; details: 100 nM, 2 hours
Method: as §1

IKKe, TBK1 = assay: KiNativ, MOLM13 live cells; format: cell-based, human; details: 100 nM, 2 hours; Lys2
Method: as §1

TAO1, TAO3 = assay: KiNativ, MOLM13 live cells; format: cell-based, human; details: 100 nM, 2 hours; Lys2
Method: as §1

[2] = test system: RSK1 domain1, RSK2 domain1, RSK3 domain1; assay: KiNativ, MOLM13 live cells; format: cell-based, human; details: 100 nM, 2 hours; Lys2
Method: as §1

ABL, ARG [3] = assay: KiNativ, MOLM13 live cells; format: cell-based, human; details: 100 nM, 2 hours
Method: as §1

KSR1, KSR2 [4] = assay: KiNativ, MOLM13 live cells; format: cell-based, human; details: 100 nM, 2 hours; Activation Loop
Method: as §1

NDR1, NDR2 [5] = assay: KiNativ, MOLM13 live cells; format: cell-based, human; details: 100 nM, 2 hours; Activation Loop
Method: as §1

[6] = test system: ZC1/HGK, ZC2/TNIK, ZC3/MINK; assay: KiNativ, MOLM13 live cells; format: cell-based, human; details: 100 nM, 2 hours; Lys2
Method: as §1

MST4, YSK1 = assay: KiNativ, MOLM13 live cells; format: cell-based, human; details: 100 nM, 2 hours; Lys2
Method: as §1

NEK6, NEK7 = assay: KiNativ, MOLM13 live cells; format: cell-based, human; details: 100 nM, 2 hours; Lys2
Method: as §1

Wnk1, Wnk2, Wnk3 = assay: KiNativ, MOLM13 live cells; format: cell-based, human; details: 100 nM, 2 hours; Lys2
Method: as §1

MAPKAPK2, MAPKAPK3 = assay: KiNativ, MOLM13 live cells; format: cell-based, human; details: 100 nM, 2 hours; Lys2
Method: as §1

CSF1R = target: T2, CSF1R (Homo sapiens, UniProt P07333); assay: KdELECT binding assay
T2 construct: purchased Eurofins DiscoverX

KSR1, KSR2 [7] = assay: KiNativ, OCI cells live cell; format: cell-based, human; details: labeling site Activation Loop, peptide SKNVFYDNGK
IKKe = IKKe (Homo sapiens, UniProt Q14164); assay: KiNativ, OCI cells live cell; format: cell-based; details: 2 h, labeling site Lys1, peptide […]
Chain of IKKe (Q14164 whole entry): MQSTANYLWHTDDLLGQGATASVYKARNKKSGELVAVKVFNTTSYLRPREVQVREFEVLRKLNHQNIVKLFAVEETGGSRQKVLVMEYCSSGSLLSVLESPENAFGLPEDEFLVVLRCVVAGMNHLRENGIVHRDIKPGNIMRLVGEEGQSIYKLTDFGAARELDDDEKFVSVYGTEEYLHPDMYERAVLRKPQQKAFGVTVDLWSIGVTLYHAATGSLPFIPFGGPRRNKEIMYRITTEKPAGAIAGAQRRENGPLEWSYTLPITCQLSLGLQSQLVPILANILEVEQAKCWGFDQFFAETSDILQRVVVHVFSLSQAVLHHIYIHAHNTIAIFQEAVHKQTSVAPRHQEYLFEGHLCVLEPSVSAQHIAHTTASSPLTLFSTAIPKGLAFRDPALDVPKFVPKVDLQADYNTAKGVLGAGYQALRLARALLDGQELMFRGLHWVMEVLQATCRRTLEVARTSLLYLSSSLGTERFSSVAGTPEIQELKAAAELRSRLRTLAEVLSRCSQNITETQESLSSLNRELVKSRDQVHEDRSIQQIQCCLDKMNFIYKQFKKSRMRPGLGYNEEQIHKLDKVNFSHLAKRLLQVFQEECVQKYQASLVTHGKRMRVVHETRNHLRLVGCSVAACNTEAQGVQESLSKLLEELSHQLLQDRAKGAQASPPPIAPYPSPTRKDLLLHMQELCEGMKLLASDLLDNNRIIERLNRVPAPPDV

NDR1, NDR2 [8] = assay: KiNativ, OCI cells live cell; format: cell-based, human; details: labeling site Activation Loop, peptide LSDFGLCTGLKK
PHKg2 = PHKg2 (Homo sapiens, UniProt P15735); assay: KiNativ, OCI cells live cell; format: cell-based; details: 2 h, labeling site Lys1, peptide […]
Chain of PHKg2 (P15735 whole entry): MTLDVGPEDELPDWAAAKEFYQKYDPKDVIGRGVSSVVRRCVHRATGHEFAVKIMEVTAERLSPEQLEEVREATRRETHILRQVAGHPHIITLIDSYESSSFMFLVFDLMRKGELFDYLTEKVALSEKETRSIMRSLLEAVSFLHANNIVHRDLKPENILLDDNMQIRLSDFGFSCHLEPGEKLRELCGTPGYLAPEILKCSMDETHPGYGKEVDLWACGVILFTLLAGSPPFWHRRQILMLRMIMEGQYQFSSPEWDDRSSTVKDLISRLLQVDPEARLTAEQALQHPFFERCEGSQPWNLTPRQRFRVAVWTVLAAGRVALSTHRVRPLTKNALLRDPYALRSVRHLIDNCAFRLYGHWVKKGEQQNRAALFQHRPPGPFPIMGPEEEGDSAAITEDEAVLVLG

CDK10 = CDK10 (Homo sapiens, UniProt Q15131); assay: KiNativ, OCI cells live cell; format: cell-based; details: 2 h, labeling site Lys2, peptide […]
Chain of CDK10 (Q15131 whole entry): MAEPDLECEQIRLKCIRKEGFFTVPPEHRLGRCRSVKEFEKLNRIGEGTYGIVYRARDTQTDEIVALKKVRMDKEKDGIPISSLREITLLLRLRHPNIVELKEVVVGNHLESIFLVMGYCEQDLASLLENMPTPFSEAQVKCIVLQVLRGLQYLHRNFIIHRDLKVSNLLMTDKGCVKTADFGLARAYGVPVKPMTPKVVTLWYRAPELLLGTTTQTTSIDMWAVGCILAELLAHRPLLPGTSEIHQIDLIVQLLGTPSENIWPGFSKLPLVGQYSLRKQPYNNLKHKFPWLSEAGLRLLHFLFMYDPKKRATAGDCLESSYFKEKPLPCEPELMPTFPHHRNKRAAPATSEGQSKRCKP

MLK4 = MLK4 (Homo sapiens, UniProt Q5TCX8); assay: KiNativ, OCI cells live cell; format: cell-based; details: 2 h, labeling site Lys2, peptide […]
Chain of MLK4 (Q5TCX8 whole entry): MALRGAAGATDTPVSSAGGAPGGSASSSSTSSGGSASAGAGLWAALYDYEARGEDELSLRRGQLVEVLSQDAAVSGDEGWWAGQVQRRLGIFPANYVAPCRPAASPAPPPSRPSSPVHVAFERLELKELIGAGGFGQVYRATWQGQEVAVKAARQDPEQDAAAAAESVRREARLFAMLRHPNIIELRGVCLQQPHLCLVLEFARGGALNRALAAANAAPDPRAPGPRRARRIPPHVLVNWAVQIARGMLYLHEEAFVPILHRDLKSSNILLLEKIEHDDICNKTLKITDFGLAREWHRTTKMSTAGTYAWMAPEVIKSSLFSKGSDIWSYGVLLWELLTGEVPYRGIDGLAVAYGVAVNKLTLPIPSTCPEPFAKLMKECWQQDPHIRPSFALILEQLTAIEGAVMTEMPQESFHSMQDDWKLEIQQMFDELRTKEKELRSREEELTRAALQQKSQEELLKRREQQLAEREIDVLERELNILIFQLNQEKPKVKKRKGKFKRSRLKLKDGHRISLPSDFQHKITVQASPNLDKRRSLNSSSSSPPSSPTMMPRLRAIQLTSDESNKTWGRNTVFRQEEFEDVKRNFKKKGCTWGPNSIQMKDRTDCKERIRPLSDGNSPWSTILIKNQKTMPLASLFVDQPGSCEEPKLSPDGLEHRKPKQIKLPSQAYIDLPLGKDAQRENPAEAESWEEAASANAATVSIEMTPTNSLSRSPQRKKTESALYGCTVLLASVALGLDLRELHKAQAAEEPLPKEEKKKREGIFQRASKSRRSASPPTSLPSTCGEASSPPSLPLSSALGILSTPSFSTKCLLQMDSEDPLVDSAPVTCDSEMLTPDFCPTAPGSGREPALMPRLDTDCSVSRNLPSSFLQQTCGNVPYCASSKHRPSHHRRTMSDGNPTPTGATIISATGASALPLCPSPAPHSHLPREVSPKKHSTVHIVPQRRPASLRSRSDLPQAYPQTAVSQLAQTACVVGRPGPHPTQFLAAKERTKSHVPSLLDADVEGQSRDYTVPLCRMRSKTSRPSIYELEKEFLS

JNK1, JNK2, JNK3 = assay: KiNativ, OCI cells live cell; format: cell-based, human; details: labeling site Lys2, peptide DLKPSNIVVK
JAK3 = target: T3, JAK3 (Homo sapiens, UniProt P52333); assay: KdELECT binding assay
T3 construct: purchased Eurofins DiscoverX
T3 sequence (P52333 whole entry): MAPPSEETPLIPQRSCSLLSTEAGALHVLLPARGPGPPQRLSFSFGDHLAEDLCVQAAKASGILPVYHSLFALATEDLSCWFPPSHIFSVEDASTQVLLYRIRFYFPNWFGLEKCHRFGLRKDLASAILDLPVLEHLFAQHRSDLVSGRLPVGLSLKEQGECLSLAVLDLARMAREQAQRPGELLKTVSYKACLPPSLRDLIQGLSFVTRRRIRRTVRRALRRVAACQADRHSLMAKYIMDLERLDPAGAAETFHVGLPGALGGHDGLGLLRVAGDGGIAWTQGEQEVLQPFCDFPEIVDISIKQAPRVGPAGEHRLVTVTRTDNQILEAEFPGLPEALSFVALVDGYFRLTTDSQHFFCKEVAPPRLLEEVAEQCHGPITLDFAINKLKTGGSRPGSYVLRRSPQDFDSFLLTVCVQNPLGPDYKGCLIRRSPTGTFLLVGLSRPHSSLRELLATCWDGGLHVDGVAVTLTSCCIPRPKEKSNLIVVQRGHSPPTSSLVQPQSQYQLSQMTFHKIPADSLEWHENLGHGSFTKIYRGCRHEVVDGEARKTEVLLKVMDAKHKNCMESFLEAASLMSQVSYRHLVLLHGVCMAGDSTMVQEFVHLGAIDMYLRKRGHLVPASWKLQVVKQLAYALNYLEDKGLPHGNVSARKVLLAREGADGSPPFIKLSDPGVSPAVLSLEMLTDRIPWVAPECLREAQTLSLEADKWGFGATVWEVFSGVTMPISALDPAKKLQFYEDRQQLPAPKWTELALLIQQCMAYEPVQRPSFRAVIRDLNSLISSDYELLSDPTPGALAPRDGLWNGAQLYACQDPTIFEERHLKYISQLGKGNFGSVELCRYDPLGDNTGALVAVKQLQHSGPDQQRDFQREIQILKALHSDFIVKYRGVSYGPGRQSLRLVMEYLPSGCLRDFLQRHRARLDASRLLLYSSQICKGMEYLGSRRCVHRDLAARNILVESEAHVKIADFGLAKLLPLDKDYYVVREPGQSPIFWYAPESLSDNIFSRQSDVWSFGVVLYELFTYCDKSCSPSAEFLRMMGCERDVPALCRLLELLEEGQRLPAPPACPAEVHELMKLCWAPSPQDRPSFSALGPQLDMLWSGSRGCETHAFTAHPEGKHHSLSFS

CRK7 = CRK7 (Homo sapiens, UniProt Q9NYV4); assay: KiNativ, OCI cells live cell; format: cell-based; details: labeling site Lys2, peptide DIKCSNILLNNSGQIK
PIK3CG = PIK3CG (Homo sapiens, UniProt P48736); assay: KiNativ, OCI cells live cell; format: cell-based; details: 2 h, labeling site ATP, peptide […]
Chain of PIK3CG (P48736 whole entry): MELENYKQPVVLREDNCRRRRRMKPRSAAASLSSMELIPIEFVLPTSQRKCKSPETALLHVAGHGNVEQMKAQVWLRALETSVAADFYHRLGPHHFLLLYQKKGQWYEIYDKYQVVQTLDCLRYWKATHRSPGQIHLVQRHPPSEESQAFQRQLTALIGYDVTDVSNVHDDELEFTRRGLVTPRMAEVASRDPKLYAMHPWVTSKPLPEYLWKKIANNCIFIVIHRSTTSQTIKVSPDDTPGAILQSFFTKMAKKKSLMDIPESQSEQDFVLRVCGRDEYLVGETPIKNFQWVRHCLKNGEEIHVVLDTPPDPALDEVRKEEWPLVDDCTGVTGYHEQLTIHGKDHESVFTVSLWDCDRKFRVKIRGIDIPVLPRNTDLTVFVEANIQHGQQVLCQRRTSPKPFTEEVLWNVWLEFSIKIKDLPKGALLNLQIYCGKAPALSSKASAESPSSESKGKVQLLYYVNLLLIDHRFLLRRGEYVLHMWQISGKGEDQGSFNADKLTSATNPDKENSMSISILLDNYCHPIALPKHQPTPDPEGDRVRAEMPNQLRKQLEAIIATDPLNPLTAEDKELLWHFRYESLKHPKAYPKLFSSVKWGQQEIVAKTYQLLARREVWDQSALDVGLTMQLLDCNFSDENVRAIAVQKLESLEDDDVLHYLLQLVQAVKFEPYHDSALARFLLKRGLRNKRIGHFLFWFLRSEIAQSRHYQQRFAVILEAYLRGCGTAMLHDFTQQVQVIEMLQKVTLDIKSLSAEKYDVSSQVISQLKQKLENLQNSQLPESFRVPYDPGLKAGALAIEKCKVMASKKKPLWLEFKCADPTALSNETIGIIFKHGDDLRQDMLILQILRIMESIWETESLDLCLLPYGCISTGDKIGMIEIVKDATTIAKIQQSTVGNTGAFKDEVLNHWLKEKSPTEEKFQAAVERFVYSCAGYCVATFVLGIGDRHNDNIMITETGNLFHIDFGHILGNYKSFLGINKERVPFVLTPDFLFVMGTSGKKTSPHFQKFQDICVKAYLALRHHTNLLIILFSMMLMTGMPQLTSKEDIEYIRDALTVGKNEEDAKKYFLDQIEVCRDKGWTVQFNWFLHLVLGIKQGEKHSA

ABL, ARG [9] = assay: KiNativ, OCI cells live cell; format: cell-based, human
[10] = test system: phospho-FLT3 and phospho-STAT5 in Ba/F3-FLT3-ITD/F691L cells; assay: Western blot, signaling inhibition; format: cell-based, mouse; details: increasing concentrations, 1 hour
Method: MOM13 cells were serum starved (RPMI plus 0.5% FBS) for 18–24 hours prior to start of drug treatment. For other cells, they were not serum starved. Drug treatments were carried out for 1 or 4 hours, at which time cells were lysed with Cell Lysis buffer (CST) or RIPA buffer (CST) supplemented with protease and phosphatase inhibitors. […] Western blots were developed with either Signal Fire ECL reagent (CST) or SuperSignal West Femto Maximum Sensitivity Substrate (Invitrogen) using Film or Odyssey FC Imaging System (LI-COR Biosciences). Western blots were repeated in 2–3 biological replicate experiments.

ACK1 = ACK1 (Homo sapiens, UniProt Q07912); assay: KdELECT binding assay; design: purchased Eurofins DiscoverX

For `CN1CCN(Cc2ccc(Nc3ncc(Cl)c(Nc4ccccc4S(=O)(=O)N(C)C)n3)cc2)CC1` [TP-0903], the inhibition at 0.1 µM (PIK3CB) was -7.2%, the inhibition at 0.1 µM (STLK5) was -46.6% and the “Inhibition vs DMSO” value [1] was -6.6%. The “Inhibition vs DMSO” value (PI4KA, PI4KAP2) was 11.9%, the “Inhibition vs DMSO” value (AKT2, AKT3) was -63.3% and the “Inhibition vs DMSO” value (p38d, p38g) was -8.7%. The “Inhibition vs DMSO” value (AMPKa1, AMPKa2; Lys1) was 19.6%, the “Inhibition vs DMSO” value (AMPKa1, AMPKa2; Lys2) was 33.8% and the “Inhibition vs DMSO” value (IKKe, TBK1) was 74.5%. The “Inhibition vs DMSO” value (TAO1, TAO3) was 9.9%, the “Inhibition vs DMSO” value [2] was 15.9% and the “Inhibition vs DMSO” value (ABL, ARG [3]; Activation Loop) was 5.0%. For the same compound, the “Inhibition vs DMSO” value (ABL, ARG [3]; Lys1) was 24.5%, the “Inhibition vs DMSO” value (KSR1, KSR2 [4]) was -11.7% and the “Inhibition vs DMSO” value (NDR1, NDR2 [5]) was -0.8%. The “Inhibition vs DMSO” value [6] was 50.7%, the “Inhibition vs DMSO” value (MST4, YSK1) was 39.6% and the “Inhibition vs DMSO” value (NEK6, NEK7) was 7.8%. For the same compound, the “Inhibition vs DMSO” value (Wnk1, Wnk2, Wnk3) was -31.8%, the “Inhibition vs DMSO” value (MAPKAPK2, MAPKAPK3) was -22.0% and the Kd (CSF1R) was 16 nM. The Inhibition (KSR1, KSR2 [7]) was -3.1%, the inhibition at 0.1 µM (IKKe) was 30.5% and the Inhibition (NDR1, NDR2 [8]) was 18.3%. For the same compound, the inhibition at 0.1 µM (PHKg2) was -5.7%, the inhibition at 0.1 µM (CDK10) was 10% and the inhibition at 0.1 µM (MLK4) was 12.7%. For the same compound, the Inhibition (JNK1, JNK2, JNK3) was 14.0%, the Kd (JAK3) was under 5 nM and the Inhibition (CRK7) was 57.2%. It also gave an inhibition at 0.1 µM (PIK3CG) of 5.5%, an Inhibition (ABL, ARG [9]; labeling site Activation Loop, peptide LMTGDTYTAHAGAKFPIK) of 37.3% and an Inhibition (ABL, ARG [9]; labeling site Lys1, peptide YSLTVAVKTLKEDTMEVEEFLK) of 40.1%. For the same compound, the “phospho-FLT3 and phospho-STAT5 by immunoblot” value [10] was “inhibition” and the Kd (ACK1) was 7.3 nM.
